Measurements taken from patent US8598131B2, “Method for treatment of lung infections by administration of aminoglycosides by aerolisation” (priority 2010, dated 2013).

How the values were obtained:
[1] = Safety assessment in the clinical study (adverse events, local irritation); assay type: in vivo; settings: 180 mg Tobramycin per ml, healthy subjects
Experimental: According to one aspect of the present disclosure, a pharmaceutical solution comprising 180 mg Tobramycin per ml water is used. This corresponds to approximately 3 fold the concentration of the solution in the marketed product (TOBI®). Tobramycin at 60 mg/mL is known to be well tolerated in healthy volunteers even at higher total dose levels; however it is considered that this increase in concentration potentially increases the risk of local irritation, but is not considered to be the primary driver for systemic exposure or systemic side effects in this study since the total dose level is lower.
Safety was assessed as well by reviewing adverse events data and vital signs data including pulse oximetry and spirometry data.

[2] = Gamma scintigraphy lung deposition, two way crossover study; settings: standard treatment, 300 mg using 5 mL in a Pari nebulizer
Experimental: To assess the lung deposition of Tobramycin according to the therapeutic method according to the present disclosure, a two way non-randomised crossover study to studying the pulmonary distribution and pharmacokinetics in healthy subjects following single dose administration of Tobramycin via the Tobrair® device and PARI LC® PLUS jet nebulizer was performed. The study was designed as an open-labelled study as it is not possible to mask the identity of the aerosol delivery system used.
18 healthy, voluntary males and healthy, voluntary, non-pregnant, non-lactating females where subjected to the following treatment regimes:
Approximately 63 mg Tobramycin (180 mg/mL×0.35 mL) delivered to the lungs via the novel Tobrair® device over 7 deep, slow inhalations.
Gamma scintigraphy may also provide an assessment of the regional distribution of deposited drug or formulation in the lungs, with central regions representing mainly large airways and peripheral regions representing mainly small airways and alveoli.
In order to use gamma scintigraphy to assess the bronchopulmonary distribution of Tobramycin, the drug solution was labelled with a gamma emitting radioisotope as a surrogate marker. More specifically, technetium-99m diethylene triamine pentacetic acid (^99mTc-DTPA) was used in this study to achieve 10-20 MBq per dose using the Tobrair® device and PARI LC® PLUS jet nebulizer.

## NCC1OC(OC2C(N)CC(N)C(OC3OC(CO)C(O)C(N)C3O)C2O)C(N)CC1O [Tobramycin, (2S,3R,4S,5S,6R)-4-amino-2-{[(1S,2S,3R,4S,6R)-4,6-diamino-3-{[2R,3R,5S,6R)-3-amino-6-(aminomethyl)-5-hydroxyoxan-2-yl]oxy}-2-(hydroxymethylcyclohexyl]oxy)-6-(hydroxymethyl)oxane-3,5-diol]
[1]
  local irritation: only a few incidents of local irritation
[2]
  dose reaching the lungs: approx. 10%
